In patent EP2241312A1, “Use of compositions comprising urea for treating microbial infections” (ISDIN S.A., priority 2009, dated 2010):
Where “and” joins values, the source holds several entries; their conditions need not be identical. Equal values may be shown once.

What was measured:
LL-37 [1] = experiment: LL-37 expression in confluent human keratinocytes, time course and urea concentration series (real time PCR); type: cell-based; conditions: for fold induction at 1000 µM / fold induction at 5000 µM / fold induction at 20000 µM / fold induction at 50000 µM / fold induction at 100000 µM / fold induction at 10000 µM: Homo sapiens, Keratinocyte; for fold induction at 20000 µM: 20mM urea
Method: (§1) Primary human epidermal keratinocytes were prepared from neonatal foreskin as described previously (Grether-Beck et al, 1996, 2000, 2003, 2005, 2008) and maintained in culture under serum free conditions using a defined keratinocyte growth medium Keratinocyte SFM (Invitrogen, Heidelberg, Germany) supplemented with bovine pituitary extract (Invitrogen, Heidelberg, Germany) and recombinant epidermal growth factor (Invitrogen, Heidelberg, Germany). Cells were propagated up to passage 2 or 3 at 37°C and 5 % CO2 (Grether-Beck et al, 1996, 2000, 2003, 2005, 2008). For induction of differentiation NHEKs were seeded in 6well plates and grown up to confluence.
(§2) For assessment of gene expression total RNA was extracted from frozen biopsies (Ø 4 mm) and gene expression measured by semiquantitative RT-PCR. For isolation of RNA from frozen skin biopsies, 600 µl lysis buffer from PeqGold Total RNA Kit (PeqLab, Erlangen, Germany) were added and the samples were disrupted in a MixerMill MM300 (Retsch, Haan, Germany) three times for 3 min with 30 Hz. 50 ng total RNA were used for cDNA synthesis. PCR reactions were performed in an Opticon 1 (MJ Research, Waltham, MA, USA) using Sybr QPCR Supermix w. Rox (Invitrogen, Karlsruhe, Germany). PCR conditions were as follows: activation of hot start taq polymerase 94° C 15 minutes; denaturation 95° C, 20 seconds; annealing, 55° C, 20 seconds; extension, 72° C 30 seconds. Each sample was subjected to PCR in double using the appropriate primer pairs for 45-50 cycles. For comparison of relative expression in real time PCR control cells and treated cells the 2 (-della delta C(T)) method was used (Livak KJ, and Schmittgen TD. Analysis of relative gene expression data using real time quantitative PCR and the 2 (-delta delta C(T)) method. Methods 2001: 25: 402 - 408). mRNA expression of the genes of interest was shown as fold induction as compared to untreated skin samples of the same volunteer. Table 1: Primer pairs for real time PCR
For determination of relative gene expression in real time PCT the 2(-delta delta C(T))-method was used as described in Livak and Schmittgen (2001) "Analysis of relative gene expression data using real time quantitative PCR and the 2 (-delta delta C(T))-method" Methods 25: 401-408. For statistical analysis, the experimental data were analyzed using the Wilcoxon signed-rank test. […]

LL-37 [2] = experiment: LL-37 gene expression in subconfluent primary human keratinocytes after urea stimulation (real time PCR); type: cell-based; conditions: 10mM urea, compared to untreated control cells; for relative gene expression level LL-37: 10000 µM; for fold induction at 10000 µM: Homo sapiens, Keratinocyte, read-out: relative gene expression level LL-37
Method: as §1, §2
For determination of relative gene expression in real time PCT the 2(-delta delta C(T))-method was used as described in Livak and Schmittgen (2001) "Analysis of relative gene expression data using real time quantitative PCR and the 2 (-delta delta C(T))-method" Methods 25: 401-408. For statistical analysis, the experimental data were analyzed using the Wilcoxon signed-rank test.
HNKs were stimulated with 10mM urea for the indicated time points (3h, 6h, 12h, 24h) and processed for RNA analysis (1). Data are the result of a set of three samples for the control and two samples in parallel for the urea stimulated ones. Table 2 indicates the relative gene expression levels after stimulation with urea as compared to untreated contol cells. […] Table 3 indicates the data depicted in Figure 2. [formula] Table 2: Expression of antimicrobial peptides in human keratinocytes after stimulation with urea at different time points after induction.

## NC(N)=O [urea]
LL-37 [1]; 24h, 1mM urea, 1440 min, 1000 µM
  Expression of LL-37: 1.9000
LL-37 [1]; 24h, 5mM urea, 1440 min, 5000 µM
  Expression of LL-37: 1.7000
LL-37 [1]; 24h, 10mM urea, 1440 min, 10000 µM
  Expression of LL-37: 1.7000
LL-37 [1]; 48h, 1mM urea, 2880 min, 1000 µM
  Expression of LL-37: 3.0000
LL-37 [1]; 48h, 5mM urea, 2880 min, 5000 µM
  Expression of LL-37: 2.2000 and 1.9000
LL-37 [1]; 72h, 1mM urea, 4320 min, 1000 µM
  Expression of LL-37: 10.3000 and 11.4000
LL-37 [1]; 72h, 5mM urea, 4320 min, 5000 µM
  Expression of LL-37: 7.1000
LL-37 [1]; 72h, 10mM urea, 4320 min, 10000 µM
  Expression of LL-37: 1.7000 and 1.7300
LL-37 [1]; 72h, 50mM urea, 4320 min, 50000 µM
  Expression of LL-37: 0.9000
LL-37 [1]; 96h, 1mM urea, 5760 min, 1000 µM
  Expression of LL-37: 4.7000 and 5.5000
LL-37 [1]; 96h, 5mM urea, 5760 min, 5000 µM
  Expression of LL-37: 4.2000
LL-37 [1]; 96h, 10mM urea, 5760 min, 10000 µM
  Expression of LL-37: 3.4000
LL-37 [1]; 96h, 100mM urea, 5760 min, 100000 µM
  Expression of LL-37: 1.0000
LL-37 [1]; 24 h, 1mM urea
  fold induction at 1000 µM: 1.8
LL-37 [1]; 24 h, 5mM urea
  fold induction at 5000 µM: 1.4
LL-37 [1]; 24 h
  fold induction at 20000 µM: 1.2
LL-37 [1]; 24 h, 50mM urea
  fold induction at 50000 µM: 1.3
LL-37 [1]; 24 h, 100mM urea
  fold induction at 100000 µM: 1.2
LL-37 [1]; 48 h, 1mM urea
  fold induction at 1000 µM: 3.2
LL-37 [1]; 48 h, 5mM urea
  fold induction at 5000 µM: 2.1
LL-37 [1]; 48 h, 10mM urea
  fold induction at 10000 µM: 1.5
LL-37 [1]; 48 h
  fold induction at 20000 µM: 1.2
LL-37 [1]; 48 h, 50mM urea
  fold induction at 50000 µM: 1.2
LL-37 [1]; 48 h, 100mM urea
  fold induction at 100000 µM: 0.8
LL-37 [1]; 72 h, 1mM urea
  fold induction at 1000 µM: 11.2
LL-37 [1]; 72 h, 5mM urea
  fold induction at 5000 µM: 7.2
LL-37 [1]; 72 h, 10mM urea
  fold induction at 10000 µM: 1.8
LL-37 [1]; 72 h
  fold induction at 20000 µM: 1.6
LL-37 [1]; 72 h, 50mM urea
  fold induction at 50000 µM: 0.8
LL-37 [1]; 72 h, 100mM urea
  fold induction at 100000 µM: 0.8
LL-37 [1]; 96 h, 1mM urea
  fold induction at 1000 µM: 5
LL-37 [1]; 96 h, 5mM urea
  fold induction at 5000 µM: 3.9
LL-37 [1]; 96 h, 10mM urea
  fold induction at 10000 µM: 3.2
LL-37 [1]; 96 h
  fold induction at 20000 µM: 1.6
LL-37 [1]; 96 h, 50mM urea
  fold induction at 50000 µM: 1.3
LL-37 [1]; 96 h, 100mM urea
  fold induction at 100000 µM: 1.1
LL-37 [2]; 3h, 180 min
  relative gene expression level LL-37: 1.9000
LL-37 [2]; 24h, 1440 min
  relative gene expression level LL-37: 1.9000
LL-37 [2]; 6 h, 6h
  fold induction at 10000 µM: 2.8
LL-37 [2]; 12 h, 12h
  fold induction at 10000 µM: 2.3
LL-37 [2]; 24 h, 24h
  fold induction at 10000 µM: 2.1
